Assays:
C. albicans = assay: Disk diffusion assay, C. albicans; format: cell-based; settings: aromatic compounds
Description: (§1) The following disk diffusion assays were performed with example compounds described above to assess the ability of compounds to inhibit growth of microorganism. A compound that inhibits its target enzyme may perform poorly for a number of reasons, including low solubility in water or slow rate of transport across a microbial membrane.

[1] = target: T1, ASADH from Candida albicans (CalASADH) (Candida albicans, UniProt Q5ALM0); assay: Time-dependent inactivation of CalASADH (pre-incubation, residual activity); format: biochemical
T1 construct: His tag; made in house
T1 sequence (Q5ALM0 1-365): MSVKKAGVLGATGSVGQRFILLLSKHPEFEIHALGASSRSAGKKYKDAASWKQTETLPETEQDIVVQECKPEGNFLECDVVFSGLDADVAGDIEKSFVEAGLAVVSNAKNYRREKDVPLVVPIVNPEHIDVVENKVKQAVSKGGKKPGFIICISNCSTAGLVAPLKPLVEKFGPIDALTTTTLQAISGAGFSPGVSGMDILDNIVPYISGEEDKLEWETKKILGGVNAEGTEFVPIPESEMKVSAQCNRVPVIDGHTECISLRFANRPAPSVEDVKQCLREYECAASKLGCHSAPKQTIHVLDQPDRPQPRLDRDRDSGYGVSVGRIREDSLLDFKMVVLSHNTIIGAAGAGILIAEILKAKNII
Description: Aryl vinyl sulfones can be reasonably potent inhibitors of CalASADH, each inhibitor was then tested to determine if it would function as an enzyme inactivator. […] In most cases the residual enzyme activity, measured following a subsequent 20-fold dilution into an assay mixture, decreased to less than 5% of the control rate after incubation with low micromolar levels of these inactivators for 10 min or less. To determine the rate of inactivation the concentration of each vinyl sulfone in this pre-incubation mixture was then varied, centered around their initial measured Ki values. The rate of activity loss observed in each incubation reaction (kobs) was plotted against the inhibitor concentration to determine the inactivation rate (kinact) for that compound and the concentration that produces half-maximal inactivation (Ki). […] The proposed product of the reaction of the active site nucleophile (Cys-156) with this inactivator predicts key interactions of the p-nitro group with Arg-18 and Ser-187, and the protonation of the covalent intermediate by His-256. […] Reaction of this inactivator with the active site nucleophile (Cys-156) predicts keys interactions between its carboxyl group and several backbone amide nitrogens that would shift this adduct further from the active site base (His-256). […]

C. albicans cells = assay: C. albicans cell survival after exposure to inactivator; format: cell-based, Candida albicans; settings: 1 h exposure; for cell survival rate, in words: several concentrations, survival after 48 h
Description: According to some embodiments, vinyl sulfone compounds contain both polar and, in some cases, charged functional groups that would make cellular uptake more challenging. However, to test the possibility that these compounds could inhibit the growth of C. albicans, two inactivators were selected for examination. […] The cells were plated and their survival rates were measured after 48 h relative to a control growth in the absence of inactivator.

K pneumoniae = assay: Disk diffusion assay, K pneumoniae; format: cell-based; settings: aromatic compounds
Description: as §1

S. aureus = assay: Disk diffusion assay, S. aureus; format: cell-based; settings: aromatic compounds
Description: as §1

`CS(=O)(=O)/C=C/c1ccc2ccccc2n1` [2-MSV-quinoline, 2-(S-methylsulfonylvinyl)quinoline] was tested, and the “disk diffusion, C. albicans” value (C. albicans) was “weak”.
With `CS(=O)(=O)/C=C/c1ccc(C(=O)O)cc1` [4-(methylsulfonylvinyl)benzoic acid] the “ASADH inactivation, in words” value [1] was “very good ASADH inactivator”, the cell survival (C. albicans cells; 25 μM, survival after 48 h relative to control) was “less than 75%” and the “cell survival rate, in words” value (C. albicans cells) was “some decrease in cell survival rate”.
In the case of `O=S(=O)(/C=C/c1ccncc1)c1ccccc1` [4-(phenylsulfonylvinyl)pyridine], the “ASADH inactivation, in words” value [1] is reported as “moderate inactivator” and the “cell survival rate, in words” value (C. albicans cells) is reported as “some decrease in cell survival rate”.
For `CS(=O)(=O)/C=C/c1ccncc1` [4-MSV-pyridine, 4-(methylsulfonylvinyl)pyridine], the “disk diffusion, C. albicans” value (C. albicans) was “medium”, the “disk diffusion, K pneumoniae” value (K pneumoniae) was “medium” and the “disk diffusion, S. aureus” value (S. aureus) was “medium”.

Source: patent publication US20240180158A1, “COMPOUNDS HAVING SELECTIVE INACTIVATION ACTIVITY” (University of North Carolina at Wilmington, priority 2021, published 2024)
